Consider one compound from patent publication US7229635B2, “Pharmacotherapeutic process and composition for central nervous system disorders” (Indiana University Research and Technology Corporation, priority 2000, dated 2007).

For one experiment, the system named is Gαq/11 G-proteins. The conditions noted are these: sustained TRH exposure to its receptor; cited from earlier work.
In experiment [1] the test system is kindled seizures (amygdala). To be noted: delivery of about 10^−6 to about 10^−12 M TRH to the brain; Example 3 and Chepournova et al.; cited from earlier work.
The test system of the next experiment is rat hippocampal slices. Description: 50 mM [K+]-stimulated glutamate release from superfused hippocampal slices. Format: cell-based. The conditions noted are these: for glutamate at 10 min. post stimulation: control 4.37±1.29, p<0.05; for peak 50 mM [K+]-stimulated glutamate release: control 48.05±8.59, p<0.001. As for the experimental part:
Enhanced excitatory amino acid release is suspected in pathways associated with seizures and excitotoxicity. In this regard, superfused hippocampal slices were used to investigate whether TRH could inhibit glutamate release in vitro. Rat hippocampi were removed and sliced transversely (500/μm) under low magnification. Slices were weighed, washed in cold saline, transferred to individual tissue chambers floated in a 37°/C. water bath, and were equilibrated in oxygenated (95% O2/5% CO2) Kreb's buffer (KRB) at 37° C. for 120 min. (0.5 ml/min). Slice chambers were then superfused 10 min. with KRB (control), or KRB containing 10 μM, 1 μM, or 0.1 μM TRH, respectively, prior to 5 min. stimulation with modified KRB (50 mM [K^+]±TRH). Fractions (1 min.) were collected during the 5 min. stimulation and for an additional 10 min. (0.5 ml/min.) thereafter, and analyzed for glutamate by HPLC.

Regarding `NC(=O)[C@@H]1CCCN1C(=O)[C@H](Cc1cnc[nH]1)NC(=O)[C@@H]1CCC(=O)N1` [TRH, Thyrotropin-releasing hormone], the “reduction of Gαq/11 G-proteins” value in the experiment on Gαq/11 G-proteins is given as 20-70%. In experiment [1], the “effect in kindling studies” value is “anticonvulsant”. Besides, the entries for the “glutamate at 10 min. post stimulation” value with rat hippocampal slices (0.1 μM TRH), in the experiment with rat hippocampal slices (1 μM TRH) and with rat hippocampal slices (10 μM TRH) were 1.54±0.43 μMg/fraction, 1.11±0.26 μMg/fraction and 1.35±0.48 μMg/fraction, respectively. For the same compound, the “peak 50 mM [K+]-stimulated glutamate release” value in the experiment on rat hippocampal slices (0.1 μM TRH) was 1.38±0.28 μMg/fraction; in the experiment with rat hippocampal slices (1 μM TRH), 1.54±0.33 μMg/fraction; in the experiment on rat hippocampal slices (10 μM TRH) it was 2.35±0.50 μMg/fraction. The “effect on glutamate release by 50 mM [K+] stimulation given 15 min. later” value with rat hippocampal slices (perfusion (5 min.) with KRB+10 μM TRH, FIG. 6) was “significantly (p<0.05) blocked glutamate release”.
